# In patent US20230118497A1, “PYRAZOLE-CONTAINING POLYCYCLIC DERIVATIVE INHIBITOR, PREPARATION METHOD THEREFOR AND APPLICATION THEREOF” (Shanghai Hansoh Biomedical Co., Ltd., priority 2019, published 2023):
# pIC50: −log10 of the molar value.
# Assays:
# [1] = Pharmacokinetic assay in Balb/C mice; type: in vivo; conditions: male, mouse, po, p.o. 5 mg/kg, plasma, 0.5% CMC-Na (1% Tween 80); for AUC(0-t): read-out: Area under curve AUC0-t; for MRT inf: read-out: Average residence time MRT0-∞; for half-life: read-out: Half life t1/2 (converted); for Tmax: read-out: Peak time tmax; for Cmax: read-out: Plasma concentration Cmax
# Method: Test Example 3. Pharmacokinetic Assay in Balb/C Mice
# Balb/C mice were used as test animals. The pharmacokinetic behavior of the compounds of Examples was studied in mouse body (plasma) by orally administration at a dose of 5 mg/kg.
# Male Balb/C mice (6 mice per group), purchased from Shanghai Jiesijie Laboratory Animal Co., LTD, with Certificate No.: SCXK (Shanghai) 2013-0006 N0.311620400001794.
# (§1) 5 g of hydroxyethyl cellulose (HEC, CMC-Na, viscosity: 800-1200 Cps) was weighed and dissolved in 1000 mL of purified water, followed by addition of 10 g of Tween80.
# After an overnight fast, male Balb/C mice were administered p.o. with the test compound at a dose of 5 mg/kg and a volume of 10 mL/kg.
# (§2) 0.04 mL of blood was taken from the orbit of the mouse before administration and at 0, 0.5, 1, 2, 4, 6, 8 and 24 hours after administration. The samples were stored in EDTA-K2 tubes, and centrifuged for 6 minutes at 4° C., 6000 rpm to separate the plasma. The plasma samples were stored at −80° C.
# 1) 160 μL of acetonitrile was added to 20 μL of the plasma sample for precipitation, and then the mixture was centrifuged at 3500×g for 5 to 20 minutes. 2) After the above process, 100 μL of the supernatant was taken to analyze the concentration of the test compound by LC/MS/MS.
# (§3) 2.7 Liquid Chromatography Analysis • Liquid chromatography condition: Shimadzu LC-20AD pump • Mass spectrometry condition: AB Sciex API 4000 mass spectrometer • Chromatographic column: phenomenex Gemiu 5 um C18 50×4.6 mm • Mobile phase: Eluent A was 0.1% formic acid in water, and Eluent B was acetonitrile • Flow rate: 0.8 mL/min • Elution time: 0-4.0 minutes the eluent is as follows:
# (§4) The main parameters of pharmacokinetics were calculated by WinNonlin 8.2.
# [2] = Plasma protein binding rate (dog); type: in vitro ADME; conditions: 37° C. 6 h
# Method: Test Example 6. Assay of Plasma Protein Binding Rate
# The objective of the experiment is to determine the plasma protein binding of the compounds of the Examples in plasma.
# The compound of the Example was formulated into 1 mM solution A with DMSO;
# The solution A was added to the plasma solution to obtain 5 μM solution B;
# 1) 200 μL of solution B was added to the inside of the membrane;
# 2) […] of PBS was added to the outside of the membrane;
# 3) Incubation in a water bath at 37° C. for 6 h;
# 4) The sample was diluted and analyzed by mass spectrometry.
# [3] = Pharmacokinetic assay in rats; type: in vivo; conditions: male, rat, po, SD rats, p.o. 5 mg/kg, plasma, 0.5% CMC-Na (1% Tween 80); for AUC(0-t): read-out: Area under curve AUC0-t; for MRT inf: read-out: Average residence time MRT0-∞; for half-life: read-out: Half life t1/2 (converted); for Tmax: read-out: Peak time tmax; for Cmax: read-out: Plasma concentration Cmax
# Method: Test Example 4. Pharmacokinetic Assay in Rats
# SD rats were used as test animals. The pharmacokinetic behavior of the compounds of Examples was studied in rat body (plasma) by orally administration at a dose of 5 mg/kg.
# Male SD rats (3 rats per group), purchased from Shanghai Jiesijie Laboratory Animal Co., LTD, with Certificate No.: SCXK (Shanghai) 2013-0006 N0.311620400001794.
# as §1
# After an overnight fast, male SD rats (3 rats per group) were administered p.o. with the test compound at a dose of 5 mg/kg and a volume of 10 mL/kg.
# as §2, with “0.2” for “0.04”, “jugular vein” for “orbit”, “rat” for “mouse”
# 1) 160 μL of acetonitrile was added to 40 μL of the plasma sample for precipitation, and then the mixture was centrifuged at 3500×g for 5 to 20 minutes.
# 2) After the above process, 100 μL of the supernatant was taken to analyze the concentration of the test compound by LC/MS/MS.
# as §3, with “minutes,” for “minutes”
# as §4
# [4] = biological target: T1, hERG potassium channel (Homo sapiens, UniProt Q12809); experiment: hERG potassium channel inhibition activity assay (Qpatch, CHO-hERG cells); type: cell-based; conditions: Qpatch whole-cell, highest test concentration 40 μM
# T1 construct: expressed in transfected cells; host or cells: CHO
# Method: Test Example 8. hERG Potassium Channel Inhibition Activity Assay
# 7.1.1 CHO-hERG cells were cultured in a 175 cm^2 culture flask. After the cell density reached 60-80%, the culture solution was removed. The cells were washed with 7 mL of PBS once, and dissociated with 3 mL of Detachin.
# 7.1.2 After completion of dissociation, the cells were neutralized with 7 mL of culture solution. The solution was centrifuged, and the supernate was removed. The cells were resuspended in 5 mL of culture solution. The cell indensity is ensured as 2˜5×10^6/mL.
# Single cell sealing impedance and formation of whole-cell mode were automatically performed by Qpatch instrument. After obtaining the whole-cell recording mode, the cell was clamped at −80 mV. The cell first underwent pre-voltage of −50 mV for 50 msec, then underwent depolarization stimulation at +40 mV for 5 sec, and then underwent repolarization at −50 mV for 5 sec, and then the voltage returned to −80 mV The cell underwent the stimulation at the voltage every 15 sec. The data were recorded for 2 min, then extracellular fluid was administrated, and then the data were recorded for 5 min. Then, the administration process begun. The concentration of the test compound started from the lowest concentration, and each test concentration was administrated for 2.5 min. At least three cells (n≥3) were tested for each concentration.
# 4.1 20 mM mother liquor of the compound was diluted with extracellular fluid. […] of extracellular fluid was added to 5 μL of 20 mM mother liquor of the compound to obtain a concentration of 40 μM (500-fold dilution). The solution was subjected to a 3-fold serial dilution with extracellular fluid containing 0.2% DMSO to obtain a required final concentration.
# This concentration of DMSO had no effect on hERG potassium channel.
# The experimental data was analyzed by XLFit software.
# T1 sequence (Q12809 whole entry): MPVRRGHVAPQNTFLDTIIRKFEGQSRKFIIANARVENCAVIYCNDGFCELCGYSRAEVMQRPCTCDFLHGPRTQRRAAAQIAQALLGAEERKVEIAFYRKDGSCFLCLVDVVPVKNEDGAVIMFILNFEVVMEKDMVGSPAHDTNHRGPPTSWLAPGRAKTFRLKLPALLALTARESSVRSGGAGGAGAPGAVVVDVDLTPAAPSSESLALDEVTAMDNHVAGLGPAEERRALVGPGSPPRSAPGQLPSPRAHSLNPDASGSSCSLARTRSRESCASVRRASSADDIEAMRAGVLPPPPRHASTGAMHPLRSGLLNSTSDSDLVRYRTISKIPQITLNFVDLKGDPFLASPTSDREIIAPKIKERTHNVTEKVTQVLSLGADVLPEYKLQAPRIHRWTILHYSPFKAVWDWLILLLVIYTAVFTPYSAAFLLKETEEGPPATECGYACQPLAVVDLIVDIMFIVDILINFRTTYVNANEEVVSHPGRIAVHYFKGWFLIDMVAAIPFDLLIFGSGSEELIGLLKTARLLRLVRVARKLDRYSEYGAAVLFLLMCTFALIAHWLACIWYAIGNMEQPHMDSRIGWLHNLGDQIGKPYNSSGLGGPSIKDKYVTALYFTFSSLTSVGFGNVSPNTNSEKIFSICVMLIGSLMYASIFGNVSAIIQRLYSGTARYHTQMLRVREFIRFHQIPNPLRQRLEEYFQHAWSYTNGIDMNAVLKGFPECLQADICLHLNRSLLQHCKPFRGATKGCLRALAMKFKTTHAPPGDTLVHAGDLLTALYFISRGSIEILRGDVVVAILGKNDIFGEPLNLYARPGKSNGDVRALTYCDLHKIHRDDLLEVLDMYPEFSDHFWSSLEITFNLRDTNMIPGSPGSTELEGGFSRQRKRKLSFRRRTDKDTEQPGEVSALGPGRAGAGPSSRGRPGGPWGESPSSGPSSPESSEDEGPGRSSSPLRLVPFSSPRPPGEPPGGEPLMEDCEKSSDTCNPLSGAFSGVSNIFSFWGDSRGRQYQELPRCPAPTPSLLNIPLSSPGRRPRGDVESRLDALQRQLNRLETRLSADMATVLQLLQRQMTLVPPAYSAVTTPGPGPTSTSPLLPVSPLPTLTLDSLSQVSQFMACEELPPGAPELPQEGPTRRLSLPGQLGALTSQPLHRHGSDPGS
SMILES,AUC(0-t) [1] [ng·h/mL],MRT inf [1] [h],half-life [1] [h],Tmax [1] [h],Cmax [1] [ng/mL],"fraction unbound at 6 h, 5 μM [2]",AUC(0-t) [3] [ng·h/mL],MRT inf [3] [h],half-life [3] [h],Tmax [3] [h],Cmax [3] [ng/mL],pIC50 [4]
"CCc1cc2n(CC(=O)Nc3ccc(F)cn3)c(=O)c3ccc(C(F)(F)F)nc3n2n1 [Example 34, 2-(2-Ethyl-5-oxo-8-(trifluoromethyl)pyrazolo[1,5-a]pyrido[3,2-e]pyrimidin-4(5H)-yl)-N-(5-fluoropyridin-2-yl)acetamide]",7580,2.3,1.4,1,2360,0.032,5780,6.2,3.5,4,904,
"O=C(Cn1c(=O)c2ccc(C(F)(F)F)nc2n2nc(Br)cc12)Nc1ccc(F)cn1 [Example 61-A, 2-(2-bromo-5-oxo-8-(trifluoromethyl)pyrazolo[1,5-a]pyrido[3,2-e]pyrimidin-4(5H)-yl)-N-(5-fluoropyridin-2-yl)acetamide]",30500,5.6,4.6,2,3430,0.037,12000,5.8,8,2,1550,< 5.00
"N#Cc1cc2n(CC(=O)Nc3ccc(F)cn3)c(=O)c3ccc(C(F)(F)F)nc3n2n1 [Example 68, 2-(2-Cyano-5-oxo-8-(trifluoromethyl)pyrazolo[1,5-a]pyrido[3,2-e]pyrimidin-4(5H)-yl)-N-(5-fluoropyridin-2-yl)acetamide]",10200,3.8,1.8,2,1830,0.084,9850,3.5,1.8,4,1880,4.74
"O=C(Cn1c(=O)c2ccc(C(F)(F)F)nc2n2nccc12)Nc1ccc(F)cn1 [Example 78, N-(5-Fluoropyridin-2-yl)-2-(5-oxo-8-(trifluoromethyl)pyrazolo[1,5-a]pyrido[3,2-e]pyrimidin-4(5H)-yl)acetamide]",5040,2.5,1.6,1,1290,0.147,6810,3.7,1.7,2,1220,< 5.00
"N#Cc1cnn2c3nc(C(F)(F)F)ccc3c(=O)n(CC(=O)Nc3ccc(F)cn3)c12 [Example 80, 2-(3-Cyano-5-oxo-8-(trifluoromethyl)pyrazolo[1,5-a]pyrido[3,2-e]pyrimidin-4(5H)-yl)-N-(5-fluoropyridin-2-yl)acetamide]",,,,,,0.135,21300,13.6,11.3,4,2190,< 4.70
